{"source": "ChEMBL document CHEMBL1132813", "about": "“Design, synthesis and cytotoxic activities of naphthyl analogues of combretastatin A-4” (Bioorg Med Chem Lett, 2000)", "type_in_all_cases": "functional, cell-based", "key": {"A549": {"test_system": "A549", "test": "The compound was evaluated for its cytotoxic potency against A-549 cell line", "settings": "Homo sapiens"}, "HT-29": {"test_system": "HT-29", "test": "The compound was evaluated for its cytotoxic potency against HT-29 cell line", "settings": "Homo sapiens"}, "P388": {"test_system": "P388", "test": "The compound was evaluated for its cytotoxic potency against P388 cell line", "settings": "Mus musculus"}, "SK-MEL-28": {"test_system": "SK-MEL-28", "test": "The compound was evaluated for its cytotoxic potency against MEL-28 cell line", "settings": "Homo sapiens"}}}
{"smiles": "C(=C/c1ccc2ccccc2c1)/c1ccc2ccccc2c1", "values": [{"measurement": "IC50", "setting": "A549", "value": 3980, "unit": "nM"}, {"measurement": "IC50", "setting": "HT-29", "value": 3980, "unit": "nM"}, {"measurement": "IC50", "setting": "P388", "value": 3980, "unit": "nM"}, {"measurement": "IC50", "setting": "SK-MEL-28", "value": 3980, "unit": "nM"}]}
{"smiles": "COc1ccc(/C=C/c2ccc3ccccc3c2)cc1O", "values": [{"measurement": "IC50", "setting": "A549", "value": 3980, "unit": "nM"}, {"measurement": "IC50", "setting": "HT-29", "value": 3980, "unit": "nM"}, {"measurement": "IC50", "setting": "P388", "value": 3980, "unit": "nM"}, {"measurement": "IC50", "setting": "SK-MEL-28", "value": 3980, "unit": "nM"}]}
{"smiles": "COc1ccc2[nH]c(-c3ccc4ccccc4c3)c(-c3cc(OC)c(OC)c(OC)c3)c2c1", "values": [{"measurement": "IC50", "setting": "A549", "value": 1260, "unit": "nM"}, {"measurement": "IC50", "setting": "HT-29", "value": 1260, "unit": "nM"}, {"measurement": "IC50", "setting": "P388", "value": 1260, "unit": "nM"}, {"measurement": "IC50", "setting": "SK-MEL-28", "value": 1260, "unit": "nM"}]}
{"smiles": "COc1cc(CCc2ccc3ccccc3c2)cc(OC)c1OC", "values": [{"measurement": "IC50", "setting": "A549", "value": 316, "unit": "nM"}, {"measurement": "IC50", "setting": "HT-29", "value": 316, "unit": "nM"}, {"measurement": "IC50", "setting": "P388", "value": 316, "unit": "nM"}, {"measurement": "IC50", "setting": "SK-MEL-28", "value": 316, "unit": "nM"}]}
{"smiles": "COc1cc(/C=C/c2ccc3ccccc3c2)cc(OC)c1OC", "values": [{"measurement": "IC50", "setting": "A549", "value": 398, "unit": "nM"}, {"measurement": "IC50", "setting": "HT-29", "value": 398, "unit": "nM"}, {"measurement": "IC50", "setting": "P388", "value": 398, "unit": "nM"}, {"measurement": "IC50", "setting": "SK-MEL-28", "value": 398, "unit": "nM"}]}
{"smiles": "COc1ccc(/C=C\\c2ccc3ccccc3c2)cc1O", "values": [{"measurement": "IC50", "setting": "A549", "value": 39.8, "unit": "nM"}, {"measurement": "IC50", "setting": "HT-29", "value": 39.8, "unit": "nM"}, {"measurement": "IC50", "setting": "P388", "value": 39.8, "unit": "nM"}, {"measurement": "IC50", "setting": "SK-MEL-28", "value": 39.8, "unit": "nM"}]}
{"smiles": "COc1ccc(CCc2ccc3ccccc3c2)cc1O", "values": [{"measurement": "IC50", "setting": "A549", "value": 5010, "unit": "nM"}, {"measurement": "IC50", "setting": "HT-29", "value": 10000, "unit": "nM"}, {"measurement": "IC50", "setting": "P388", "value": 5010, "unit": "nM"}, {"measurement": "IC50", "setting": "SK-MEL-28", "value": 5010, "unit": "nM"}]}
{"smiles": "COc1ccc(/C=C\\c2cc(OC)c(OC)c(OC)c2)cc1O", "note": "[COMBRETASTATIN A4]", "values": [{"measurement": "IC50", "setting": "A549", "value": 3.16, "unit": "nM"}, {"measurement": "IC50", "setting": "HT-29", "value": 31.6, "unit": "nM"}, {"measurement": "IC50", "setting": "P388", "value": 3.16, "unit": "nM"}, {"measurement": "IC50", "setting": "SK-MEL-28", "value": 3.16, "unit": "nM"}]}
{"smiles": "COc1cc(/C=C\\c2ccc3ccccc3c2)cc(OC)c1OC", "note": "[NAPHTHYLCOMBRETASTATIN]", "values": [{"measurement": "IC50", "setting": "A549", "value": 15.8, "unit": "nM"}, {"measurement": "IC50", "setting": "HT-29", "value": 15.8, "unit": "nM"}, {"measurement": "IC50", "setting": "P388", "value": 15.8, "unit": "nM"}, {"measurement": "IC50", "setting": "SK-MEL-28", "value": 15.8, "unit": "nM"}]}
